“And” between values parts separate entries of the source, which are not always exact repeats. Equal values may be shown once. Inconclusive results are not listed.

The subject of the test is HEK293 LMP1 TES2 NF-kB luciferase reporter, 16 h. The experiment in a line: EBV LMP1 TES2 canonical NF-kB signalling blockers – cell-based, HEK293, luciferase, cherry-pick, dose response (AID 588343).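 Further: potency of compounds lowering the induced NF-kB luciferase signal.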
On to `CCN1CCN(Cc2ccc(NC(=O)c3ccc(C)c(NC(=O)c4cccc5[nH]ccc45)c3)cc2C(F)(F)F)CC1`, for which the AC50 (as a rule, the midpoint of the concentration-response curve, whichever way the signal moves) is 418 nM and 146 nM.
On to `COc1ccc(O)c2c(=O)c3c(OC)cc4c(c3oc12)C1C=COC1O4` (stereo unspecified), for which the AC50 was 698 nM.
On to `Nc1ccn([C@@H]2O[C@H](CO)[C@@H](O)[C@@H]2O)c(=O)n1`, for which the AC50 was 13200 nM.
In the case of `Cc1ccc(C(=O)Nc2cccc(C(F)(F)F)c2)cc1NC(=O)c1ccno1`, the AC50 was 816 nM and 5400 nM.
Turning to `CCN1CCN(Cc2ccc(NC(=O)c3ccc(C)c(NC(=O)N4CCNC4=O)c3)cc2C(F)(F)F)CC1`, the concentration at half-maximal activity (AC50) was 484 nM and 1060 nM and 977 nM.
Regarding `Nc1ccn([C@@H]2O[C@H](CO)[C@@H](O)C2O)c(=O)n1` (stereo partly specified), the AC50 is 4970 nM.
